Measured values from patent US20220155322A1, “USE OF NATRIURETIC PEPTIDES TO ASSESS AND TREAT ACUTE KIDNEY INJURY” (Mayo Foundation for Medical Education and Research, priority 2019, published 2022).

Legend:
Type in all cases: cell-based
[1] = system: human primary renal proximal tubular epithelial cells (HRPTC); assay: Oil immersion induced hypoxia/reoxygenation (H/R) apoptosis, Caspase 3/7 IncuCyte live imaging
Protocol: Oil Immersion Induced Hypoxia/Reoxygenation in vitro: HRPTC (ScienCell Research Laboratories; Carlsbad, Calif.) were seeded in 96-well plates and cultured for 1 day until 70-80% confluence. Passages 3-5 were used for experiments. Caspase 3/7 green apoptosis assay agent (Essen BioScience; Ann Arbor, Mich.) was added to the culture medium for detection of apoptosis. Plates were then transferred to a time-lapsed, live imaging system IncuCyte (Essen BioScience) for apoptosis monitoring for a total of 24 hours. H/R in cells was mimicked with mineral oil (Sigma, St Louis, Mo.) immersion (Meldrum et al., J Surg Res, 99:288-293, 2001). Cells were immersed in oil for 2 hours, washed twice, and placed in fresh medium containing vehicle (H/R group) or drugs. ANP, BNP, and CRRL269 were used at concentrations of 10^−8, 10^−7, or 10^−6 M. PKG (an important cGMP binding protein) activating analogue 8-pCPT-cGMP (Sigma; St. Louis, Mo.), which is specific for PKG and has low affinity for phosphodiesterases, was used at concentrations of 10^−6, 10^−5, or 10^−4 M. Cells were treated with 10^−6-, 5×10^−6-, or 1.5×10^−5 M PKG inhibitor KT-5823 (Abcam; Cambridge, Mass.) for 30 minutes before 10^−6 M CRRL269 was added. Cells without H/R stimulation were labeled as the negative control (Neg Ctrl) group. Apoptosis signals (e.g., apoptosis object counts) were analyzed with software provided by IncuCyte.

[2] = system: human primary aortic vascular smooth muscle cells (HASMC); assay: Intracellular calcium under ANGII stimulation (Fura-2); conditions: pretreatment at 10^−9 or 10^−7 M for 5 minutes, ANGII 10^−8 or 10^−7 M
Protocol: Measurements of Intracellular Calcium in Vascular Smooth Muscle Cells: HASMC (ScienCell Research Laboratories; Carlsbad, Calif.) were cultured and maintained as instructed by the manufacturer. Cells at passage 4 or 5 were used for experiments. Calcium imaging was performed as described elsewhere (Chai et al., Cardiovasc Res, 100:151-159, 2013). Briefly, cells were seeded on a 25 mm round cover glass (Fisher Scientific; Pittsburgh, Pa.) at a density of 5×10^4 cells per slide. The slides had been pretreated with 0.5 N NaOH for 8 hours, rinsed with water, and sterilized before use. After overnight culturing, the slides with cells were assembled in a MS-02 Chamber (ALA Scientific Instrument; Farmingdale, N.Y.) and loaded with 3 μM fura-2 AM (Invitrogen; Carlsbad, Calif.) for 30 minutes in a 37° C. incubator. The chamber was then placed on the stage of an inverted Olympus IX71 microscope (Olympus America Inc.; Waltham, Mass.). The cells were maintained in 1 mL HASMC medium and treated with or without ANP, BNP, or CRRL269 at concentration of 10^−9 or 10^−7 M for 5 minutes before perfused with 5 mL medium containing ANGII (10^−8 or 10^−7 M). Intracellular Ca2^+ fluorescence signals were measured as a ratio of fluorescence intensities at 510 nm from excitations of 340/380 nm, using a Hamamatsu ORCA-R2 CCD camera with a Sutter LB-LS/17 light source. Baseline fluorescence was recorded after 5 minutes of treatment, and fluorescence images were acquired continuously during the ANGII perfusion. Background fluorescence was subtracted and the calcium signal (F) was normalized to baseline fluorescence (FO) and expressed as a ratio (F/FO) using MetaFluor software (Olympus America Inc.).

[3] = system: human renal fibroblasts (HRF); assay: Human renal fibroblast proliferation by cell counting; conditions: CNP at 10^−7 M every 24 hours, cell count at 72 hours
Protocol: Human Renal Fibroblasts Proliferation by Cell Counting: Human renal fibroblasts (HRF, Cell Biologics; Chicago, Ill.) were counted and seeded into 48-well plates with complete medium, and then incubated at 37° C., 5% CO2 overnight. The culture medium was replaced with fresh medium containing PBS or CNP at concentrations of 10^−8 or 10^−7 M, and cells were cultured for 72 hours. Fresh CNP was added at 24 and 48 hours. At 72 hours, HRF were trypsinized, stained with 0.2% trypan blue, and counted using a Cedex XS Analyzer (Roche; Indianapolis, Ind.).

Q: How did the “apoptosis inhibition in HRPTC after H/R” value ([1]; 8-pCPT-cGMP at 10^−6 and 10^−5 M) turn out when `Nc1nc2c(nc(Sc3ccc(Cl)cc3)n2C2O[C@@H]3COP(=O)(O)O[C@H]3[C@H]2O)c(=O)[nH]1` (stereo in doubt) [8-pCPT-cGMP, reference compound] was run?
A: mimicked the apoptosis inhibition

Q: With `CC[C@H](C)[C@@H]1NC(=O)[C@H](CCCNC(=N)N)NC(=O)[C@H](CC(=O)O)NC(=O)[C@H](CCSC)NC(=O)[C@H](CCCNC(=N)N)NC(=O)CNC(=O)CNC(=O)[C@H](Cc2ccccc2)NC(=O)[C@@H](NC(=O)[C@H](CO)NC(=O)[C@H](CO)NC(=O)[C@H](CCCNC(=N)N)NC(=O)[C@H](CCCNC(=N)N)NC(=O)[C@H](CC(C)C)NC(=O)[C@@H](N)CO)CSSC[C@@H](C(=O)N[C@@H](CC(N)=O)C(=O)N[C@@H](CO)C(=O)N[C@@H](Cc2ccccc2)C(=O)N[C@@H](CCCNC(=N)N)C(=O)N[C@@H](Cc2ccc(O)cc2)C(=O)O)NC(=O)CNC(=O)[C@H](CC(C)C)NC(=O)CNC(=O)[C@H](CO)NC(=O)[C@H](CCC(N)=O)NC(=O)[C@H](C)NC(=O)CNC1=O` [ANP, atrial natriuretic peptide, reference compound] as the molecule, how does the “Ca2^+ enhancement by ANGII in HASMC” value [2] read?
A: suppressed

Q: For `COC(=O)[C@@]1(OC)C[C@H]2O[C@]1(C)n1c3ccccc3c3c4c(c5c6ccccc6n2c5c31)C(=O)N(C)C4` [KT-5823, reference compound], which “effect on antiapoptotic effects induced by CRRL269” value ([1]; HRPTC, H/R, KT-5823 30 minutes before 10^−6 M CRRL269) is on record?
A: abrogated

Q: For “B-type natriuretic peptide [BNP, reference compound]”, which “Ca2^+ enhancement by ANGII in HASMC” value [2] is on record?
A: suppressed

Q: How did the “human renal fibroblast (HRF) proliferation” value [3] turn out when “C-type natriuretic peptide (GLSKGCFGLKLDRIGSMSGLGC; listed as Homo sapiens) [CNP]” was run?
A: suppressed
